Results: US9198903B2, “Method of treating or preventing thrombosis in a patient with 5-HT2A receptor antagonist thromboserin” (Thromboserin Limited, priority 2007, dated 2015)

How the values were obtained:
platelets = test: Platelet count (full blood count) in cross-over study; format: in vivo, human patients
Protocol: (§1) Study design: Randomised controlled double blind cross-over study: 2 weeks 5HT2A receptor antagonist (Thromboserin) (10 mg twice daily) or placebo, wash out period of 2 weeks and cross over to other arm for further two weeks. Side effects, and compliance documented in both groups. Blood sampling/Assays: Blood samples obtained at baseline, 2 weeks (the end of phase 1), 4 weeks (the end of phase 2), at 6 weeks (the end of phase 3) and 2 weeks after the completion of the study. The following assays were obtained. • Full blood count, urea, electrolytes, creatinine, liver function tests and glucose • Blood levels of Thromboserin • Bleeding time • Surface expression of the platelet activation markers P-selectin and fibrinogen. These were measured using whole blood flow cytometry. Measurement after incubation with agonists such as ADP was also performed in order to assess the platelet responsiveness to stimuli. • Ultegra Rapid Platelet Function Assay (RPFA). Methods: Venepuncture: Venous blood was collected into vacutainers by clean venepuncture with 19G butterfly and adaptor, using tourniquet to locate the vein only. The first 5 mL of blood was used for full blood count, and subsequent samples collected in order for the platelet tests and others. Clinical symptoms and signs were also recorded. The other observations were: routine full blood count by Clinical Haematology Laboratory, ARI, and U&Es, creatinine, Liver Function tests and blood glucose by Clinical Biochemistry Laboratory, ARI.

[1] = Skin bleeding time in randomised double blind cross-over study; format: in vivo, human patients; details: first 13 patients, drug 10 mg twice daily vs placebo cross-over courses
From the text: Objective: To evaluate whether inhibition platelets can be accompanied by no increase in bleeding time, by means of serotonin 5HT2A receptor antagonism. Study population: Patients with a history of intermittent claudication (IC) or coronary heart disease (CHD) recruited. There were 48 patients studied, all of whom were Caucasian, aged 69±6.6 years and of which 38 were male and 10 female. Patients with IC have clinical findings of peripheral vascular disease and an ABPI <0.9. Patients with CHD have chronic stable angina and angiographic evidence of coronary artery disease (stenosis of >70% in at least one major coronary artery). Study design: Randomised controlled double blind cross-over study: 2 weeks 5HT2A receptor antagonist (Thromboserin) (10 mg twice daily) or placebo, wash out period of 2 weeks and cross over to other arm for further two weeks. Side effects, and compliance documented in both groups. Skin bleeding time was performed, contra-laterally from venepuncture. A suitable area of forearm was shaved if necessary and cleaned with alcohol swab. A sphygmomanometer cuff was inflated on the upper arm to 40 mmHg. One incision was made with Surgicutt bleeding device ([…], Hertfordshire), and a stopwatch was started. […] The bleeding time was recorded to the nearest 30 seconds.

[2] = Clinical biochemistry (liver function tests, glucose, urea, creatinine, electrolytes) in cross-over study; format: in vivo, human patients; details: Thromboserin vs placebo
Protocol: as §1, with “Venepuncture:” for “Venepuncture: Venous blood was collected into vacutainers by clean venepuncture with 19G butterfly and adaptor, using tourniquet to locate the vein only. The first 5 mL of blood was used for full blood count, and subsequent samples collected in order for the platelet tests and others.”

[3] = in the presence of hypokalaemia; cited from earlier work
alpha-1 adrenergic = details: cited from earlier work

Probability of no Difference: Platelet count (platelets; Thromboserin 10 mg twice daily 2 weeks vs placebo, Wilcoxon)	Probability of no Difference: Platelet count over 6 weeks (platelets; Thromboserin vs placebo, Repeated measures ANOVA)	Probability of no Difference: Platelets, excluding 4 patients With abnormal count (platelets; Thromboserin vs placebo, Wilcoxon)	Change of bleeding time (in words) [1]	Probability of no Difference: Alanine amino transferase ([2]; Wilcoxon)	Probability of no Difference: Gamma GT ([2]; Wilcoxon)	Probability of no Difference: Gamma GT, In patients with abnormal values ([2]; Wilcoxon)	Probability of no Difference: Alkaline phosphatase ([2]; paired t test)	SMILES	Pro-arrhythmic properties (in words) [3]	Alpha-1 adrenergic activity (in words) (alpha-1 adrenergic)
0.0416	0.0233	0.0214	no significant rise in bleeding time	0.0021	0.0216	0.0266	0.0034	CN(C)C(C)(C)CSc1nc2ccccc2cc1-c1ccccc1.Cl [Thromboserin]	–	–
–	–	–	–	–	–	–	–	O=C(c1ccc(F)cc1)C1CCN(CCn2c(=O)[nH]c3ccccc3c2=O)CC1 [Ketanserin]	pro-arrhythmic properties	alpha-1 adrenergic antagonistic properties
